Data as given in US12390421B2, “Zwitterionic dendritic amphiphiles, zwitterionic dendrimers, zwitterionic telodendrimers, nanocarriers comprising same, and methods of making and using same” (The Research Foundation for the State University of New York, priority 2017, dated 2025).

Tested on: SKOV-3 cancer cell
Test: Cellular uptake of protein/drug loaded nanocarriers
Type: cell-based
Text: Cellular uptake of protein/drug delivered by zwitterionic nanocarriers. The internalization of protein/drug loaded zwitterionic nanocarrier was studied against SKOV-3 cancer cell. […] Folate targeting group modification facilitates FITC-BSA-loaded NP_CB internalization into cells compared to non-targeted NP_CB. […] The ability of NPs to deliver drug into cells was studied using DOX as model drug by taking advantage of its intricate fluorescence.

Compound	cellular uptake of DOX (SKOV-3, DOX free or loaded, 2 h)	cellular uptake of FITC-BSA (SKOV-3, FITC-BSA free or loaded, 1 h)
COc1cccc2c1C(=O)c1c(O)c3c(c(O)c1C2=O)C[C@@](O)(C(=O)CO)C[C@@H]3O[C@H]1C[C@H](N)[C@H](O)[C@H](C)O1.Cl [free DOX, Doxorubicin hydrochloride]	Strong fluorescence and absolute presence of DOX in nucleus	
free FITC-BSA: FITC-labeled BSA, model protein		no fluorescence signal
